Assay results published in publication PMC7000700, “RyR1-targeted drug discovery pipeline integrating FRET-based high-throughput screening and human myofiber dynamic Ca^2+ assays” (Scientific Reports, 2020).
Entries after “also recorded” stand apart in the source; their conditions may differ.

Legend:
[1] = tested on: electrically evoked Ca^2+ transients in rat skinned fibers; assay: Electrically evoked Ca2+ transients (EC coupling) in rat skinned skeletal muscle fibers; type: cell-based; conditions: field stimulation 1 Hz, 100 nM free Ca2+
Text: To test the potential impact of these compounds on excitation contraction coupling, we measured voltage-induced Ca^2+ transients in rat skeletal muscle fibers. To do this, we again used mechanically skinned fibers. Because the t-system reseals upon mechanical skinning, bathing the preparation in a K^+-based cytoplasmic solution (with a small amount of Na^+) allows the Na^+-K^+ pump to re-establish the normal membrane potential. EC coupling can be initiated by exciting the preparation with field pulses that generate action potentials in the t-system to trigger Ca^2+ release[52]–[54]. Ca^2+ release is tracked by imaging rhod-2 in the cytoplasm via confocal microscopy in line-scan mode, and quantitatively plotted in Fig. 5 (based on recordings such as shown in Supplementary Fig. 7). A major advantage of using skinned fibers is that known concentrations of RyR modulators can be added to the cytoplasm, as they were added in the “leak” experiments. With this approach, we found 1 and 10 μM myricetin reduced Ca^2+ transient peak amplitude by 12% (P = 0.0046) and 48% (P < 0.0001), respectively (Fig. 5 and Supplementary Fig. 7a). In the case of chloroxine, only addition of 100 μM led to a detectable 14% (P < 0.0001) reduction in the Ca^2+ transient peak amplitude (Fig. 5 and Supplementary Fig. 7b). Therefore, both compounds, have impact on Ca^2+ transients that is markedly lower than their effect on the t-tubule readout of RyR1 [Ca^2+] leak (Figs. 4 and 5).
All experimental methods using rats were approved by The Animal Ethics Committee at The University of Queensland. Five month old Wistar rats (UQ Biological Resources, Brisbane) were euthanized by asphyxiation via CO2 exposure, and the extensor digitorum longus (EDL) were rapidly excised.
Skinned rat fibers were prepared and bathed in a resting physiological solution containing 100 nM Ca^2+, 1 mM Mg^2+, 36 mM Na^+, 126 mM K^+, 1 mM EGTA, 90 mM HEPES, […], 10 mM creatine phosphate and 8 mM ATP (pH 7.4). The Ca^2+ sensitive dye rhod-2 was used to track cytosolic Ca^2+ transients when exposed to electrical stimulation. […]

RyR1 = RyR1 (Sus scrofa, UniProt P16960); assay: FLT-FRET between D-FKBP and A-CaM bound to RyR1 in skeletal SR membranes (HTS and dose-response); type: binding, porcine; set-up: RyR1 in skeletal SR membranes, and RyR2 in cardiac SR membranes; from tissue; host or cells: porcine longissimus dorsi muscle (heavy SR vesicles); conditions: 30 nM Ca2+; for Effect on FRET: RyR1 samples, micromolar compound, GSSG or GSH
Chain of RyR1 (P16960 whole entry): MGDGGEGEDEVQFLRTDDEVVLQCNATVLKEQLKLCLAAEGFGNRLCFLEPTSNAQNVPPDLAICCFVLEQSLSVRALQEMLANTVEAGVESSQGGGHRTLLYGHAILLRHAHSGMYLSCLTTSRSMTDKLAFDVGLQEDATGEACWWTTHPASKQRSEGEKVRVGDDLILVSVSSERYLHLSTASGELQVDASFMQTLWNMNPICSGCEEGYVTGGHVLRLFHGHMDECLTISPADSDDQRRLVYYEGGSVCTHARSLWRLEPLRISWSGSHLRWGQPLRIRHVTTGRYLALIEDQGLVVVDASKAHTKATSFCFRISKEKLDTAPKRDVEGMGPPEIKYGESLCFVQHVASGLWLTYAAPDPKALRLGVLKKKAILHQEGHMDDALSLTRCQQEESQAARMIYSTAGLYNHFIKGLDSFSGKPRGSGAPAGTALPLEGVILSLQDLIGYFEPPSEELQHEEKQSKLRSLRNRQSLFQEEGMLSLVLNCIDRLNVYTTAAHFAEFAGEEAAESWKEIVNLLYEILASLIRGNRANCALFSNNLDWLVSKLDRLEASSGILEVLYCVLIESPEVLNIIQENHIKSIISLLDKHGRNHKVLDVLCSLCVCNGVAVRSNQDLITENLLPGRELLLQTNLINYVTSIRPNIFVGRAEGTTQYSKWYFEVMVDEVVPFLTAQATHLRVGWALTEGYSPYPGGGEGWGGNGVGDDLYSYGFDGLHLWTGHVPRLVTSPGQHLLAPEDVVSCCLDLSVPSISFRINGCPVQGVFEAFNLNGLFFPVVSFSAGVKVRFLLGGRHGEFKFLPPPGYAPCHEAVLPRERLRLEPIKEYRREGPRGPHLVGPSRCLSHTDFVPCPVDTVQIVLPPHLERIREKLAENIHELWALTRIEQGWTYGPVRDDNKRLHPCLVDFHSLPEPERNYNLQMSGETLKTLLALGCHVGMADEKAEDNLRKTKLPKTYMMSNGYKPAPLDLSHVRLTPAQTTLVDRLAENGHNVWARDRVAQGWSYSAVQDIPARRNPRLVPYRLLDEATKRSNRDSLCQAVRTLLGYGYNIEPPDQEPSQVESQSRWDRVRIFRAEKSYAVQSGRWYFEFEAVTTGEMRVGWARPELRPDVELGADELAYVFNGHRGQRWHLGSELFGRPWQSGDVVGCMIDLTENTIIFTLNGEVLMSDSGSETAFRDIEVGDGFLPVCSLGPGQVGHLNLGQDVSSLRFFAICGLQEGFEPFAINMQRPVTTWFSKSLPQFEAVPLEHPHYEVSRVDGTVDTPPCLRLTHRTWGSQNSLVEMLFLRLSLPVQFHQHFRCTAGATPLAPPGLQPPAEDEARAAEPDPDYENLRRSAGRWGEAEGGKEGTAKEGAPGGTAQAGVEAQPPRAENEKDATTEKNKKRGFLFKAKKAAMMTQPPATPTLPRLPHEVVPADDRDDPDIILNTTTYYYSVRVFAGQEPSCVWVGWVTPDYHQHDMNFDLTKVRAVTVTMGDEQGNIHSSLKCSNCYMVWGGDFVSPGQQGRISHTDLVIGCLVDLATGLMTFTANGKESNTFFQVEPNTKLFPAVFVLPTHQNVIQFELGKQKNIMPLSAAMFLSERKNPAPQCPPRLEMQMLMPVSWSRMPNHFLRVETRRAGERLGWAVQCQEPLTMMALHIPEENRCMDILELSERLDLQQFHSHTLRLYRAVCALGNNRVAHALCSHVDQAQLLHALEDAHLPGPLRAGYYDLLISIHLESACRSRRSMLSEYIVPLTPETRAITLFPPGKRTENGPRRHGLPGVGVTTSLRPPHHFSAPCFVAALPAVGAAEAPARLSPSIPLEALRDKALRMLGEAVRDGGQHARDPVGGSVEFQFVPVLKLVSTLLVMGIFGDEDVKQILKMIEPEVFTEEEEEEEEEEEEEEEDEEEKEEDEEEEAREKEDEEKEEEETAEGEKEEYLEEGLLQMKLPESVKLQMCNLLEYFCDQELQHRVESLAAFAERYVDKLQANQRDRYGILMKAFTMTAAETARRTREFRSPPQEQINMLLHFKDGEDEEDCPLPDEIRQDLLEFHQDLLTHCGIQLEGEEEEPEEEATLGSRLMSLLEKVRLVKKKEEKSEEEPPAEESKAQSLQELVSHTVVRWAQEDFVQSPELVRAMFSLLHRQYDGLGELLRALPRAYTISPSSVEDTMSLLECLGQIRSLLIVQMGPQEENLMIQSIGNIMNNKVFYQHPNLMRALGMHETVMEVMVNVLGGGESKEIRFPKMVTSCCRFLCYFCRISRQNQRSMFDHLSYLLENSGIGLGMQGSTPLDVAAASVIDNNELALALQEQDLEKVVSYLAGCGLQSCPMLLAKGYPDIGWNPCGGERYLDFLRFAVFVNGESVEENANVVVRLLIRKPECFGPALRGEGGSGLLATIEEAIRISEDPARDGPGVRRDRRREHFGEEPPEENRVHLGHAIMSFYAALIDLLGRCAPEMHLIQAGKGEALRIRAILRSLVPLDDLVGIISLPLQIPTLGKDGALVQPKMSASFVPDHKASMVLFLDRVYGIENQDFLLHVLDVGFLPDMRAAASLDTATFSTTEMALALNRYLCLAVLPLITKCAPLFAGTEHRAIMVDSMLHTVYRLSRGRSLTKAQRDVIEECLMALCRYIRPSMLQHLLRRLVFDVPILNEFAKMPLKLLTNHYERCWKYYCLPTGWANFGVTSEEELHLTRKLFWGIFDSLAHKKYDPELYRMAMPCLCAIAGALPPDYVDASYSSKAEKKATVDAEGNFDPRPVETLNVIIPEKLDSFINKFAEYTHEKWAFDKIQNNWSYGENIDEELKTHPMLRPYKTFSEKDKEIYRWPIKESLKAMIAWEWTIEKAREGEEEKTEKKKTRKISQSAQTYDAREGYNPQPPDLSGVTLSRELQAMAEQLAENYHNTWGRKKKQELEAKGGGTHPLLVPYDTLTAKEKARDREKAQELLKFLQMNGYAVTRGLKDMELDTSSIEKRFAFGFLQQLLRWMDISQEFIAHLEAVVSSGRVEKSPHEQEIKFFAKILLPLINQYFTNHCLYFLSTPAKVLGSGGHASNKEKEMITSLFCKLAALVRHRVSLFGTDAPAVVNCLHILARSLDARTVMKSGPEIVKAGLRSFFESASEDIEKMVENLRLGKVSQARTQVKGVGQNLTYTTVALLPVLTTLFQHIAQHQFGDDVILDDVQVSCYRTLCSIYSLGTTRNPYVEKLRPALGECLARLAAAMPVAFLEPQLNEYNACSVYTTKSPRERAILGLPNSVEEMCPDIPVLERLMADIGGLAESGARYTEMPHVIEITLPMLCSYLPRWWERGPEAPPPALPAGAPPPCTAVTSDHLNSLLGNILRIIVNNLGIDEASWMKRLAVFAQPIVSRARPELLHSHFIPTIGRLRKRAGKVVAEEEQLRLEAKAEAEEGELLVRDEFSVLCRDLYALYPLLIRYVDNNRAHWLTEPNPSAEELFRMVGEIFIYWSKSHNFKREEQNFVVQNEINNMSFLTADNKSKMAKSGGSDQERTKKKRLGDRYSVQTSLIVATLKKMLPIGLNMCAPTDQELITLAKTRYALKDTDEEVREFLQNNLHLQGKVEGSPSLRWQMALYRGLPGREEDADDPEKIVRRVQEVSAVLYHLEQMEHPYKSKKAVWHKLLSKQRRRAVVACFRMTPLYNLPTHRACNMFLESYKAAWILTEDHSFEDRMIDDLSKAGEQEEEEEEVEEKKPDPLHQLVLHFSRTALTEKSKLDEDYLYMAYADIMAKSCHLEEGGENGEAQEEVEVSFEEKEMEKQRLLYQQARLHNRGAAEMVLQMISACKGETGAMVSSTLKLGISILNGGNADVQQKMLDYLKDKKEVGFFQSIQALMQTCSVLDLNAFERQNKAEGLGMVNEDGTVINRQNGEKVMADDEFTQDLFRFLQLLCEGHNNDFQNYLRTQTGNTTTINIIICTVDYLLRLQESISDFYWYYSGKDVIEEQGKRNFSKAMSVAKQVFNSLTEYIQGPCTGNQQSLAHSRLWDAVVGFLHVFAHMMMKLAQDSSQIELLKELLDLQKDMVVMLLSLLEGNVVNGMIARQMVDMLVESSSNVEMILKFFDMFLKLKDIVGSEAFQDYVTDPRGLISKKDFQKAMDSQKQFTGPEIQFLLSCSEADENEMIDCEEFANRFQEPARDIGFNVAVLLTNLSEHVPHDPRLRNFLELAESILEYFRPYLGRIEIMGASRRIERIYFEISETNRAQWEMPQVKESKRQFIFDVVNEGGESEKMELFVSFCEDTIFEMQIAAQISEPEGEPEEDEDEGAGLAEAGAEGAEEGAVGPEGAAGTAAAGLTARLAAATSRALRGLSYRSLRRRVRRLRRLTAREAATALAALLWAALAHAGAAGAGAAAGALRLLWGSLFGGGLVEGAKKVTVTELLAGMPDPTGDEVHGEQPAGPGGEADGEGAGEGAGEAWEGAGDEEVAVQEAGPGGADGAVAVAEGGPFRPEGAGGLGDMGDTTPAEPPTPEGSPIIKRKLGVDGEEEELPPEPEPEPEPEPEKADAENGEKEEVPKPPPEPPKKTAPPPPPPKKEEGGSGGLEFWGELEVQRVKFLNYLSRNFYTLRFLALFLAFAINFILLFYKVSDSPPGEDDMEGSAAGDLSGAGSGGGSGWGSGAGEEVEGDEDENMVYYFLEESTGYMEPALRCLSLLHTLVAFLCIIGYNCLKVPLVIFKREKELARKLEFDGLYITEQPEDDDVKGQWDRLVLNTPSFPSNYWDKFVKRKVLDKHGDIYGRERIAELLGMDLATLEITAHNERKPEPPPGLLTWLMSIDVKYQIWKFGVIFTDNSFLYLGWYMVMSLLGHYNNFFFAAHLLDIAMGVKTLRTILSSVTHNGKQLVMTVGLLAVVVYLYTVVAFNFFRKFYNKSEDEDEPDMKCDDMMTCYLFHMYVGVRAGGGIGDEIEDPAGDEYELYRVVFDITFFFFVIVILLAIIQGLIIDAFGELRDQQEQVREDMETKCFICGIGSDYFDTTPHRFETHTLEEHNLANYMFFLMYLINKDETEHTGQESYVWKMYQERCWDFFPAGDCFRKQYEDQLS
Experimental: To confer compatibility with current HTS standards in industrial drug discovery facilities, we miniaturized our screening format from the previously established 384-well plates, requiring 50 μL sample per well[19], to 1536-well plates, requiring 5 μL sample per well. The complete 1280-compound library of pharmacologically active compounds (LOPAC) was applied as 5 nL/well in 40 columns of one 1536-well black-wall/black-bottom plate, with the remaining 8 columns loaded with 5 nL/well of DMSO, as no-drug controls. For each run of the screen, three plates were loaded with either (1) unlabeled HSR, or (2) HSR pre-incubated with donor-FKBP (D-FKBP; donor-only sample), or (3) donor-only sample that was additionally incubated with 0.3 μM acceptor-CaM (A-CaM) for 60 min prior to loading on the plate (donor-acceptor sample). This sub-saturating concentration of A-CaM was used to provide a readout that is sensitive to library compounds that may increase or decrease CaM binding affinity to RyR. To promote a homogenous population of RyR1 resembling that associated with myopathies, final assay conditions also included 30 nM Ca^2+ to represent resting (muscle relaxing) Ca^2+, and 5 mM oxidized glutathione (GSSG), which exaggerates the conditions associated with oxidative stress.
We acquired both FLT waveforms and fluorescence spectra, as previously described[19],[33],[34]. As previously observed, Hit effects were greatest following a 2-hour incubation with the library compounds (Supplementary Fig. 1a). As a result, all FRET results shown in Figs. 1 and 2, and Supplementary Fig. 2 are reported from the 2-hour incubation.
Necessary counter-screens to our pathological RyR1 conditions include evaluating compound effects in healthy conditions and on the cardiac isoform, RyR2. Using the same FRET assay as in HTS, we tested the dose response of key Hits from this screen and the previously HTS-identified RyR1 inhibitor, chloroxine, on healthy (5 mM GSH) and pathological (5 mM GSSG) conditions for both RyR1 in skeletal SR membranes, and RyR2 in cardiac SR membranes.
Skeletal HSR and cardiac CSR (0.4 mg/ml) membranes were independently pre-incubated with 60 nM D-FKBP, for 90 min, at 37 °C, in a solution containing 150 mM KCl, 5 mM GSH, 0.1 mg/mL BSA, 1 µg/mL Aprotinin/Leupeptin, 1 mM DTT and 20 mM PIPES (pH 7.0). To remove unbound D-FKBP, the SR membranes were spun down at 110,000 × g for 20 min, and then resuspended to 1 mg/mL (skeletal HSR) and 2 mg/mL (cardiac CSR) in binding buffer consisting of 150 mM KCl, 5 mM GSSG, 0.1 mg/mL BSA, 1μg/mL Aprotinin/Leupeptin and 20 mM PIPES, pH 7.0. These samples were then incubated with indicated [A-CaM] for 30 min at 22 °C in binding buffer containing 0.065 mM CaCl2 to give 30 nM free Ca^2+ in the presence of 1 mM EGTA (calculated by MaxChelator). This labeled SR sample was applied to the assay plates in 5 μL aliquots using a Multidrop™ Combi reagent dispenser (Thermo Scientific) with a standard-tube. An additional set of the assay plates were loaded with skeletal HSR or cardiac CSR labeled with only D-FKBP (no added A-CaM).
FLT measurements were conducted in a top-read FLT-PR designed and built by Fluorescence Innovations, Inc[33]. AF488 donor fluorescence was excited with a 473-nm microchip laser from Concepts Research Corporation (Belgium, WI), and emission was acquired with 490-nm long-pass and 517/20-nm band-pass filters (Semrock, Rochester, NY).
FLT waveforms for each well were fit based on a one-exponential decay function using least-squares minimization global-analysis software (Fluorescence Innovations, Inc.), as previously described[19],[33]. FRET efficiency (E) was determined as the fractional decrease of donor FLT (τD), due to the presence of acceptor fluorophore (τDA), using the following equation:1 E=1−τDA/τD, […]

Structure (SMILES) | Reduction of Ca2+ transient peak amplitude ([1]; 1 μM compound) | Reduction of Ca2+ transient peak amplitude ([1]; 10 μM compound) | Hit in primary FLT-FRET HTS of LOPAC (FRET altered by > 4 SD vs DMSO) (RyR1; 10 μM compound, 2-hour incubation, 5 mM GSSG, 0.3 μM A-CaM, 1536-well) | Effect on FRET (RyR1) | Reduction of Ca2+ transient peak amplitude ([1]; 100 μM compound)
O=c1c(O)c(-c2cc(O)c(O)c(O)c2)oc2cc(O)cc(O)c12 [myricetin] | 12% | 48% | identified; also recorded: increased the FRET efficiency readout | increases FRET | 
Oc1c(Cl)cc(Cl)c2cccnc12 [chloroxine] |  |  |  | increased | 14%
